The subject of this test is CD2F1 mice, P1798 lymphosarcoma sc, tumor weight T/C. Put plainly: NCI In Vivo Anticancer Drug Screen. Data for tumor model P1798 Lymphosarcoma (subcutaneous) in CD2F1 (CDF1) mice. The following applies: endpoint: mean tumor weight, higher = larger tumour. On the procedure:
The antitumor activity of compounds was measured in mice bearing transplantable tumors. Survival or tumor size were measured and the results are expressed as the measurement made in the treated group (T) divided by the measurement made in the vehicle treated control group (C). The tumor model used in this assay is P1798 Lymphosarcoma (subcutaneous) in CD2F1 (CDF1) mice

Where [1] appears, read: dose: 1.25 mg/kg/injection, schedule: Q01DX010 (ip), vehicle: saline.
Where [2] appears, read: dose: 12.5 mg/kg/injection, schedule: Q01DX010 (ip), vehicle: saline.
Where [3] appears, read: dose: 25.0 mg/kg/injection, schedule: Q01DX010 (ip), vehicle: saline.
[4] abbreviates: dose: 50.0 mg/kg/injection, schedule: Q01DX010 (ip), vehicle: saline.
Setting [5] is: dose: 100.0 mg/kg/injection, schedule: Q01DX010 (ip), vehicle: saline.
Where [6] appears, read: dose: 200.0 mg/kg/injection, schedule: Q01DX010 (ip), vehicle: saline.
[7] abbreviates: dose: 400.0 mg/kg/injection, schedule: Q01DX010 (ip), vehicle: saline.
[8] abbreviates: dose: 12.5 mg/kg/injection, schedule: Q01DX010 (sc), vehicle: steriod suspending solution.
Where [9] appears, read: dose: 25.0 mg/kg/injection, schedule: Q01DX010 (sc), vehicle: steriod suspending solution.
The mark [10] stands for this setting: dose: 100.0 mg/kg/injection, schedule: Q01DX010 (sc), vehicle: steriod suspending solution.
Where [11] appears, read: dose: 6.25 mg/kg/injection, schedule: Q01DX010 (ip), vehicle: saline.
The mark [12] stands for this setting: dose: 5.0 mg/kg/injection, schedule: Q01DX010 (ip), vehicle: saline.
[13] abbreviates: dose: 10.0 mg/kg/injection, schedule: Q01DX010 (ip), vehicle: saline.
Where [14] appears, read: dose: 20.0 mg/kg/injection, schedule: Q01DX010 (ip), vehicle: saline.
Setting [15] is: dose: 40.0 mg/kg/injection, schedule: Q01DX010 (ip), vehicle: saline.
Setting [16] is: dose: 18.0 mg/kg/injection, schedule: Q01DX010 (ip), vehicle: saline.
Setting [17] is: dose: 27.0 mg/kg/injection, schedule: Q01DX010 (ip), vehicle: saline.
[18] abbreviates: dose: 60.0 mg/kg/injection, schedule: Q01DX010 (ip), vehicle: saline.

“And” between values parts separate entries of the source, which are not always exact repeats. Equal entries are not always repeated.

As for `Oc1cc(CN(CCCl)CCCl)c(O)cc1CN(CCCl)CCCl`, the T/C (as a rule, the result in the treated group divided by that in the control group, in per cent) (dose: 0.63 mg/kg/injection, schedule: Q01DX010 (ip), vehicle: saline) is 71 % of control and 86 % of control; the T/C under setting [1] was 64 % of control and 88 % of control; the T/C (dose: 2.5 mg/kg/injection, schedule: Q01DX010 (ip), vehicle: saline) is 42 % of control and 64 % of control.

For the molecule `NCCCC(N)C(=O)NCCCCCCNCCCCCCNC(=O)C(N)CCCN` (configuration not stated), the T/C was 86 % of control under setting [2], 62 % of control under setting [3], 77 % of control under setting [4] and 34 % of control under setting [5].

For `Nc1nc(SCc2ccccc2)c2[nH]cnc2n1`, the T/C was 86 % of control (dose: 16.0 mg/kg/injection, schedule: Q01DX010 (ip), vehicle: saline) and 90 % of control (dose: 64.0 mg/kg/injection, schedule: Q01DX010 (ip), vehicle: saline).

In the case of `NC(N)=NCCCC(N)C(=O)NCCCCCCNC(=O)C(N)CCCN=C(N)N` (configuration not stated), the T/C under setting [3] is 94 % of control, the T/C under setting [4] was 85 % of control, the T/C under setting [5] is 99 % of control and the T/C under setting [6] is 90 % of control.

In the case of `Nc1c(N=Nc2ccc([N+](=O)[O-])cc2)c(S(=O)(=O)O)cc2cc(S(=O)(=O)O)c(N=Nc3ccc(Sc4ccc(N=Nc5ccc(O)cc5)cc4)cc3)c(O)c12` (tested in a mixture with another compound), the T/C by setting is: under setting [4], 119 % of control; under setting [5], 76 % of control; under setting [6], 31 % of control; under setting [7], 20 % of control.

Turning to `O=c1ccc2ccccc2o1`, the T/C was 69 % of control (dose: 110.0 mg/kg/injection, schedule: Q01DX011 (ip), vehicle: carboxymethylcellulose (CMC)) and 54 % of control (dose: 165.0 mg/kg/injection, schedule: Q01DX011 (ip), vehicle: carboxymethylcellulose (CMC)).

As to `Cc1cc2nc3c(=O)[nH]c(=O)nc-3n(CC(O)C(O)C(O)C(O)CO)c2cc1C` (configuration not stated), the T/C under setting [4] was 86 % of control, the T/C under setting [5] is 88 % of control and the T/C under setting [6] was 58 % of control.

Regarding `CC(=O)NCCCCCCNC(C)=O`, the T/C is, setting by setting: under setting [4], 112 % of control; under setting [5], 95 % of control; under setting [6], 119 % of control; under setting [7], 86 % of control.

`[N-]=[N+]=CC(=O)CCC(N)C(=O)O` (configuration not stated): the T/C reads like this: (dose: 0.01 mg/kg/injection, schedule: Q01DX010 (ip), vehicle: saline) 102 % of control; (dose: 0.03 mg/kg/injection, schedule: Q01DX010 (ip), vehicle: saline) 89 % of control; (dose: 0.05 mg/kg/injection, schedule: Q01DX010 (ip), vehicle: saline) 100 % of control; (dose: 0.1 mg/kg/injection, schedule: Q01DX010 (ip), vehicle: saline) 108 % of control.

With `C[C@]12C=CC(=O)C=C1CC[C@@H]1[C@@H]2CC[C@]2(C)OC(=O)CC[C@@H]12`, the T/C under setting [8] was 107 % of control and 112 % of control; the T/C under setting [9] was 101 % of control and 77 % of control; the T/C under setting [10] is 111 % of control and 115 % of control.

Turning to `COc1ccc2[nH]c3c(C)c4ccncc4c(C)c3c2c1`, the T/C runs as follows: (dose: 0.39 mg/kg/injection, schedule: Q01DX010 (ip), vehicle: saline) 104 % of control; (dose: 0.78 mg/kg/injection, schedule: Q01DX010 (ip), vehicle: saline) 111 % of control; (dose: 1.56 mg/kg/injection, schedule: Q01DX010 (ip), vehicle: saline) 73 % of control; under setting [11], 61 % of control; under setting [2], 45 % of control; under setting [3], 40 % of control and 42 % of control.

As for `CS(=O)(=O)OCCCCOS(C)(=O)=O`, the T/C by setting is: under setting [11], 103 % of control; under setting [4], 58 % of control and 80 % of control; under setting [5], 52 % of control.

Regarding `O=C(NCCCCC(NC(=O)c1ccccc1)C(=O)NCCCCCCCCCCNC(=O)C(CCCCNC(=O)c1ccccc1)NC(=O)c1ccccc1)c1ccccc1` (configuration not stated), the T/C reads like this: under setting [2], 85 % of control; under setting [3], 93 % of control; under setting [4], 86 % of control; under setting [5], 90 % of control.

As to `S=c1nc[nH]c2nc[nH]c12`, the T/C runs as follows: (dose: 10.0 mg/kg/injection, schedule: Q01DX010 (ip), vehicle: alkali diluted with saline) 90 % of control; (dose: 80.0 mg/kg/injection, schedule: Q01DX010 (ip), vehicle: alkali diluted with saline) 35 % of control.

As for `C[C@@H]1C[C@@]2(C)[C@@H](CC[C@@H]3[C@@H]2CC[C@]2(C)[C@@H](O)CC[C@@H]32)CC1=O`, the T/C under setting [8] was 118 % of control and 124 % of control; the T/C under setting [9] was 100 % of control and 107 % of control; the T/C (dose: 50.0 mg/kg/injection, schedule: Q01DX010 (sc), vehicle: steriod suspending solution) was 101 % of control and 111 % of control; the T/C under setting [10] was 109 % of control and 121 % of control.

As to `NC(N)=NCCCC(N)C(=O)NCCCCCCNCCCCCCNC(=O)C(N)CCCN=C(N)N` (configuration not stated), the T/C is 102 % of control under setting [12], 105 % of control under setting [13], 84 % of control under setting [14] and 116 % of control under setting [15].

Consider `O=C(NCCCCC(NC(=O)c1ccccc1)C(=O)NCCCCCCNCCCCCCNC(=O)C(CCCCNC(=O)c1ccccc1)NC(=O)c1ccccc1)c1ccccc1` (configuration not stated), for which the T/C is 98 % of control under setting [4], 85 % of control under setting [5], 116 % of control under setting [6] and 80 % of control under setting [7].

Turning to `COc1cc2c3c(c4ccc(OC)c(OC)c4c2cc1OC)CN1CCC[C@@H]1C3`, the T/C reads like this: under setting [1], 100 % of control and 78 % of control; under setting [12], 108 % of control and 87 % of control; under setting [13], 93 % of control and 104 % of control.

Consider `Cc1cc(N(CCCl)CCCl)ccc1N=Nc1ccccc1C(=O)O`, for which the T/C under setting [12] was 72 % of control and 79 % of control; the T/C under setting [13] was 16 % of control and 23 % of control; the T/C under setting [14] was 10 % of control.

In the case of `CCC1=C(c2cc(Cl)c3ccccc3c2OCC(=O)O)OC(CC)(C(=O)c2cc(Cl)c3ccccc3c2OCC(=O)O)CC1` (configuration not stated), the T/C by setting is: (dose: 240.0 mg/kg/injection, schedule: Q01DX010 (ip), vehicle: steriod suspending solution) 74 % of control; (dose: 480.0 mg/kg/injection, schedule: Q01DX010 (ip), vehicle: steriod suspending solution) 80 % of control.

Turning to `CC(=O)c1ccccc1C`, the T/C is 44 % of control under setting [16], 42 % of control under setting [17] and 42 % of control under setting [15].

For the molecule `Nc1ccn(C2OC(CO)C(O)C2O)c(=O)n1` (configuration not stated), the T/C was 12 % of control under setting [13]; 31 % of control under setting [16]; 10 % of control under setting [14]; 12 % of control under setting [17]; 4 % of control and 6 % of control under setting [15]; 1 % of control under setting [18].

Regarding `NC(=O)NO`, the T/C by setting is: under setting [18], 60 % of control; (dose: 90.0 mg/kg/injection, schedule: Q01DX010 (ip), vehicle: saline) 54 % of control; (dose: 135.0 mg/kg/injection, schedule: Q01DX010 (ip), vehicle: saline) 39 % of control; under setting [6], 12 % of control.

With `CCCCCC(=O)O[C@]1(C(C)=O)CC[C@H]2[C@@H]3CCC4=CC(=O)CC[C@]4(C)[C@H]3CC[C@@]21C`, the T/C is 110 % of control (dose: 250.0 mg/kg/injection, schedule: Q01DX010 (sc), vehicle: steriod suspending solution); 106 % of control (dose: 375.0 mg/kg/injection, schedule: Q01DX010 (sc), vehicle: steriod suspending solution); 114 % of control (dose: 500.0 mg/kg/injection, schedule: Q01DX010 (sc), vehicle: steriod suspending solution); 109 % of control (dose: 750.0 mg/kg/injection, schedule: Q01DX010 (sc), vehicle: steriod suspending solution).

`O=C(CNC(=O)OCc1ccccc1)NCCCCCCNCCCCCCNC(=O)CNC(=O)OCc1ccccc1`: the T/C is, setting by setting: under setting [4], 120 % of control; under setting [5], 97 % of control.

In the case of `Nc1nc(=O)n(C2CC(O)C(CO)O2)cc1Br` (configuration not stated), the T/C is, setting by setting: under setting [4], 81 % of control; under setting [5], 65 % of control; under setting [6], 39 % of control; under setting [7], 29 % of control; (dose: 800.0 mg/kg/injection, schedule: Q01DX010 (ip), vehicle: saline) 7 % of control.

Values taken from PubChem BioAssay AID268 (DTP/NCI, 2004).
